Test results taken from patent US20060135569A1, “Use of benzisoselenazolone compounds against ischemic myocardial damage” (priority 2002, published 2006).
Marks after values point to notes of the source that are not given here.

Legend:
[1] = system: acute myocardial ischemia in anesthetized dogs; test: Acute myocardial ischemia and infarction in anesthetized dogs; format: in vivo, dog
Method: Dogs were divided into three groups: 1, vehicle control group, PEG 1 ml/kg, n=5; 2, dilthiazem group, 5 mg/kg, n=5; 3, IMM-004 group, 30 mg/kg, n=5. The tested drugs were prepared in distilled water at volume of 1 ml/kg. The tested items were administrated via duodenum by animals.

[2] = system: rats subjected to myocardial ischemia/reperfusion insult; test: Cardiac function and hemodynamics in rats subjected to myocardial ischemia/reperfusion; format: in vivo, rat; conditions: 30 mg/kg orally
Method: Method: Male SD rats weighing 300-350 g were fasted for 12 hrs and anesthetized by i.p. treatment with 20% Urethane (0.5 ml/100 g, 1 g/kg). Polyethylene tubes (PE-50) were inserted into the left femoral artery, left femoral vein, right femoral vein and the left ventricle. The left femoral artery was cannulated for blood collection, and the left femoral vein was cannulated for liquid compensation, the right femoral artery was cannulated for blood pressure detection, the left ventricle was cannulated for ventricular pressure detection, left femoral artery and ventricle were cannulated and the catheter was linked with pressure transducer by triplet. Signals were acquired by oscillograph and multi-channel biodynamic recorder linked with the pressure transducer. Rats in drug-treated group were orally treated with IMM-004 at 30 mg/kg, while rats in vehicle control group was orally treated with an equal volume of vehicle (PEG). Dissect the trachea and artificial respiration was performed via respirator after thoracotomy (2 ml/100 g). A left thoracotomy was performed from the forth to fifth intercostals space by cutting off the forth and fifth rib 2 mm from the left border of sternum, and the pericardium was opened to expose the heart. A 3.0 silk ligature was placed under the left anterior descending coronary artery. The heart was taken back to the chest and allowed to stabilize for 10 min. The ends of the suture were threaded through a polyethylene tube (3×8 mm) to form a snare. Pull the ends of the suture taut and clamp the snare with a hemostat to occlude the coronary artery. Coronary artery occlusion was verified by epicardial cyanosis and subsequent decrease in arterial blood pressure. Reprefusion of the heart was initiated via unclamping the hemostat and loosening the snare for 15 min. Left ventricular systolic pressure (LVSP), left ventricular end-diastolic pressure (LVEDP), and maximum rate of left ventricular pressure (±dp/dtmax), artery systolic pressure (SP), artery diastolic pressure (DP), mean artery pressure (MAP) and heart rate (HR) were continuously recorded every 10 min before and after thoracotomy and during the period of ischemia (15 min) and reperfusion (1 h).

[3] = N-BT staining, Dilthiazem 5 mg/kg, IMM-004 30 mg/kg, % according to b137

Compound: O=c1c2cc(Cl)ccc2[se]n1-c1ccccn1 [IMM-004, 5-chloro-2-(2-pyridyl)-1,2-benz-isoselenazol-3(2H)-one]
- infarction size (of heart) decrease compared with the vehicle control ([1]; 30 mg/kg): 69.18%
- infarction size (of ventricle) decrease compared with the vehicle control ([1]; 30 mg/kg): 67.94%
- Σ-ST decreased by ([1]; 30 mg/kg via duodenum, 180 min after administration): 53.90±20.60%
- severity of myocardial ischemia (Σ-ST) ([1]; 30 mg/kg via duodenum, 180 min after administration, from 325.20±55.95 mV): 146.80±60.25 mV
- Coronary flow (under heading arterial and venous blood oxygen content) ([1]; 30 mg/kg, 120 min and 180 min after administration, vs baseline): significantly increased
- Myocardial infarction size, % of heart ([1]; 30 mg/kg, N-BT staining): 2.04±0.93%
- Myocardial infarction size, % of ventricular ([1]; 30 mg/kg, N-BT staining): 5.08±2.00%
- elevation of LDH activity ([1]; 30 mg/kg, vs vehicle control): no effect
- elevation of serum AST ([1]; 30 mg/kg, vs vehicle control): significantly inhibited
- elevation of serum CK ([1]; 30 mg/kg, vs vehicle control): significantly inhibited
- Coronary flow increase verse the baseline ([1]; 30 min after treatment, 30 mg/kg): 15.02±22.16%
- Infarction area/ heart area [1, 3]: 2.04 ± 0.93
- Infarction area/ventricle area [1, 3]: 5.08 ± 2.00
- Infarction area mm^2 ([1]; N-BT staining, Dilthiazem 5 mg/kg, IMM-004 30 mg/kg, X ± SD): 255.70 ± 58.2*** mm^2
- Myocardial infarction size, in words ([1]; N-BT staining, IMM-004 30 mg/kg, dilthiazem 5 mg/kg): significantly reduced
- Coronary flows, in words ([1]; after treatment, dilthiazem 5 mg/kg, IMM-004 30 mg/kg): significantly increased
- +dp/dtmax [2]: about +110 mmHg/s
- Heart rate [2]: not influenced
- MAP [2]: 80 mmHg
- SBP [2]: 100 mmHg
- LVSP ([2]; decreased steadily from 120 mmHg): 100 mmHg
- LVEDP ([2]; equal to the baseline): about −6 mmHg
- −dp/dtmax ([2]; reduced from 100 mmHg/s): 70 mmHg/s
